The source made the active and inactive calls. The rule behind the calls is not given here.
Test system: CCRIS mutagenicity, Ames/micronucleus/aberration tests
Assay: CCRIS mutagenicity studies
[1] = Test System: AMES SALMONELLA TYPHIMURIUM, Strain/Indicator: TA98, Metabolic Activation: NONE, Method: STANDARD PLATE
[2] = Test System: AMES SALMONELLA TYPHIMURIUM, Strain/Indicator: TA98, Metabolic Activation: RAT, LIVER, S-9, AROCLOR 1254, Method: STANDARD PLATE
[3] = Test System: AMES SALMONELLA TYPHIMURIUM, Strain/Indicator: TA100, Metabolic Activation: NONE, Method: STANDARD PLATE
[4] = Test System: AMES SALMONELLA TYPHIMURIUM, Strain/Indicator: TA100, Metabolic Activation: RAT, LIVER, S-9, AROCLOR 1254, Method: STANDARD PLATE
[5] = Test System: AMES SALMONELLA TYPHIMURIUM, Strain/Indicator: TA98, Metabolic Activation: NONE, Method: PREINCUBATION
[6] = Test System: AMES SALMONELLA TYPHIMURIUM, Strain/Indicator: TA100, Metabolic Activation: NONE, Method: PREINCUBATION

Nc1ccc(F)cc1
mutagenic call (End Point: IN VITRO MICRONUCLEUS, Test System: CHL/IU CELLS, Metabolic Activation: RAT, LIVER, S-9, PHENOBARBITAL AND 5,6-BENZOFLAVONE): active; positive | mutagenic call (Test System: AMES SALMONELLA TYPHIMURIUM, Strain/Indicator: TA98, Metabolic Activation: HAMSTER, LIVER, S-9, AROCLOR 1254, Method: STANDARD PLATE): active; positive | mutagenic call [1]: inactive; negative | mutagenic call [2]: active; positive | mutagenic call (Test System: AMES SALMONELLA TYPHIMURIUM, Strain/Indicator: TA100, Metabolic Activation: HAMSTER, LIVER, S-9, AROCLOR 1254, Method: STANDARD PLATE): active; positive | mutagenic call [3]: inactive; negative | mutagenic call [4]: active; positive | mutagenic call (Test System: E. COLI, Strain/Indicator: WP2 UVRA, Metabolic Activation: NONE, Method: FLUCTUATION TEST): inactive; negative | mutagenic call (Test System: MOUSE LYMPHOMA, Strain/Indicator: L5178Y (TK+/TK-), Metabolic Activation: NONE, Method: SUSPENSION/PLATE): active; positive. reevaluation of results: equivocal | mutagenic call (Test System: Mouse lymphoma, Strain/Indicator: L5178Y (tk+/tk-), Metabolic Activation: Rat, Liver, S-9, Aroclor 1254, Method: Suspension/plate): inconclusive (previous evaluation equivocal)

Cc1c2c(cc3c1ccc1ccccc13)C=C[C@@H](O)[C@@H]2O
mutagenic call (Test System: CHINESE HAMSTER V-79, Strain/Indicator: V-79/8-AZAGUANINE, Metabolic Activation: NONE, Method: STANDARD PLATE): active; positive

COc1cc(S(=O)(=O)O)c(C)cc1N=Nc1c(O)ccc2cc(S(=O)(=O)O)ccc12
mutagenic call [5]: inactive; negative | mutagenic call [1]: inactive; negative | mutagenic call (Test System: AMES SALMONELLA TYPHIMURIUM, Strain/Indicator: TA98, Metabolic Activation: RAT LIVER S-9, AROCLOR 1254, Method: STANDARD PLATE): inactive; negative | mutagenic call (Test System: AMES SALMONELLA TYPHIMURIUM, Strain/Indicator: TA98, Metabolic Activation: S-9, Method: PREINCUBATION): inactive; negative | mutagenic call [6]: inactive; negative | mutagenic call [3]: inactive; negative | mutagenic call (Test System: AMES SALMONELLA TYPHIMURIUM, Strain/Indicator: TA100, Metabolic Activation: RAT LIVER S-9, AROCLOR 1254, Method: STANDARD PLATE): inactive; negative | mutagenic call (Test System: AMES SALMONELLA TYPHIMURIUM, Strain/Indicator: TA100, Metabolic Activation: S-9, Method: PREINCUBATION): inactive; negative

FC(F)(F)c1ccc(Cl)c(Cl)c1
mutagenic call (Test System: E. coli, Strain/Indicator: WP2uvrA/pKM101, Metabolic Activation: None, Method: Preincubation): inactive; negative | mutagenic call (Test System: E. coli, Strain/Indicator: WP2uvrA/pKM101, Metabolic Activation: Rat, Liver, S9, Sodium phenobarbital and 5,6-benzoflavone, Method: Preincubation): inactive; negative

CCCCCC(N)=O
mutagenic call (Test System: AMES SALMONELLA TYPHIMURIUM, Strain/Indicator: TA98, Metabolic Activation: HAMSTER, LIVER, S-9, AROCLOR 1254 (10%), Method: PREINCUBATION): inactive; negative | mutagenic call [5]: inactive; negative | mutagenic call (Test System: AMES SALMONELLA TYPHIMURIUM, Strain/Indicator: TA98, Metabolic Activation: RAT, LIVER, S-9, AROCLOR 1254 (10%), Method: PREINCUBATION): inactive; negative | mutagenic call (Test System: AMES SALMONELLA TYPHIMURIUM, Strain/Indicator: TA100, Metabolic Activation: HAMSTER, LIVER, S-9, AROCLOR 1254 (10%), Method: PREINCUBATION): inactive; negative | mutagenic call [6]: inactive; negative | mutagenic call (Test System: AMES SALMONELLA TYPHIMURIUM, Strain/Indicator: TA100, Metabolic Activation: RAT, LIVER, S-9, AROCLOR 1254 (10%), Method: PREINCUBATION): inactive; negative | mutagenic call (Test System: AMES SALMONELLA TYPHIMURIUM, Strain/Indicator: TA1535, Metabolic Activation: HAMSTER, LIVER, S-9, AROCLOR 1254 (10%), Method: PREINCUBATION): inactive; negative | mutagenic call (Test System: AMES SALMONELLA TYPHIMURIUM, Strain/Indicator: TA1535, Metabolic Activation: NONE, Method: PREINCUBATION): inactive; negative | mutagenic call (Test System: AMES SALMONELLA TYPHIMURIUM, Strain/Indicator: TA1535, Metabolic Activation: RAT, LIVER, S-9, AROCLOR 1254 (10%), Method: PREINCUBATION): inactive; negative | mutagenic call (Test System: AMES SALMONELLA TYPHIMURIUM, Strain/Indicator: TA1537, Metabolic Activation: HAMSTER, LIVER, S-9, AROCLOR 1254 (10%), Method: PREINCUBATION): inactive; negative | mutagenic call (Test System: AMES SALMONELLA TYPHIMURIUM, Strain/Indicator: TA1537, Metabolic Activation: NONE, Method: PREINCUBATION): inactive; negative | mutagenic call (Test System: AMES SALMONELLA TYPHIMURIUM, Strain/Indicator: TA1537, Metabolic Activation: RAT, LIVER, S-9, AROCLOR 1254 (10%), Method: PREINCUBATION): inactive; negative

O=Nc1cc2c3ccccc3ccc2c2ccccc12
mutagenic call [5]: active; positive | mutagenic call (Test System: AMES SALMONELLA TYPHIMURIUM, Strain/Indicator: TA98, Metabolic Activation: RAT, LIVER, S-9, AROCLOR 1254, Method: PREINCUBATION): active; positive | mutagenic call [6]: active; positive | mutagenic call (Test System: AMES SALMONELLA TYPHIMURIUM, Strain/Indicator: TA100, Metabolic Activation: RAT, LIVER, S-9, AROCLOR 1254, Method: PREINCUBATION): active; positive | mutagenic call (Test System: CHINESE HAMSTER OVARY, Strain/Indicator: CHO-K1-BH4 (HGPRT)/6-THIOGUANINE, Metabolic Activation: NONE, Method: STANDARD PLATE): active; positive | mutagenic call (Test System: CHINESE HAMSTER OVARY, Strain/Indicator: CHO-UV5 (HGPRT)/6-THIOGUANINE, Metabolic Activation: NONE, Method: STANDARD PLATE): active; positive

CC(=O)Nc1nc2c3cccnc3ccc2n1C
mutagenic call (Test System: AMES SALMONELLA TYPHIMURIUM, Strain/Indicator: TA98(1,8-DNP6), Metabolic Activation: RAT, LIVER, S-9, Method: STANDARD PLATE): inactive; negative | mutagenic call (Test System: AMES SALMONELLA TYPHIMURIUM, Strain/Indicator: TA98(NR), Metabolic Activation: RAT, LIVER, S-9, Method: STANDARD PLATE): active; positive | mutagenic call (Test System: AMES SALMONELLA TYPHIMURIUM, Strain/Indicator: TA98, Metabolic Activation: RAT, LIVER, S-9, Method: STANDARD PLATE): active; positive | mutagenic call (Test System: AMES SALMONELLA TYPHIMURIUM, Strain/Indicator: TA98, Method: STANDARD PLATE): active; positive

Fc1ccc(CN2C3c4ccccc4-c4ccccc4C32)cc1 (centres undefined)
mutagenic call [3]: active; positive

Nc1cc([N+](=O)[O-])c(N)cc1F
mutagenic call [1]: active; positive | mutagenic call [2]: active; positive | mutagenic call [3]: inactive; negative | mutagenic call [4]: active; positive | mutagenic call (Test System: AMES SALMONELLA TYPHIMURIUM, Strain/Indicator: TA1535, Metabolic Activation: NONE, Method: STANDARD PLATE): inactive; negative | mutagenic call (Test System: AMES SALMONELLA TYPHIMURIUM, Strain/Indicator: TA1535, Metabolic Activation: RAT, LIVER, S-9, AROCLOR 1254, Method: STANDARD PLATE): inactive; negative | mutagenic call (Test System: AMES SALMONELLA TYPHIMURIUM, Strain/Indicator: TA1537, Metabolic Activation: NONE, Method: STANDARD PLATE): active; positive | mutagenic call (Test System: AMES SALMONELLA TYPHIMURIUM, Strain/Indicator: TA1537, Metabolic Activation: RAT, LIVER, S-9, AROCLOR 1254, Method: STANDARD PLATE): active; positive | mutagenic call (Test System: AMES SALMONELLA TYPHIMURIUM, Strain/Indicator: TA1538, Metabolic Activation: NONE, Method: STANDARD PLATE): active; positive | mutagenic call (Test System: AMES SALMONELLA TYPHIMURIUM, Strain/Indicator: TA1538, Metabolic Activation: RAT, LIVER, S-9, AROCLOR 1254, Method: STANDARD PLATE): active; positive

O=c1oc2cccc3ccc4c5ccccc5cc1c4c32
mutagenic call [1]: inactive; negative | mutagenic call [2]: active; positive | mutagenic call [4]: active; positive

CCc1c2ccccc2cc2c1c1c(c3ccccc32)O1
mutagenic call [5]: active; positive

C[C@@H]1C[C@@]2(C)[C@@H](CC[C@@H]3[C@@H]2CC[C@]2(C)[C@@H](O)CC[C@@H]32)CC1=O
mutagenic call [1]: inactive; negative | mutagenic call (Test System: AMES SALMONELLA TYPHIMURIUM, Strain/Indicator: TA98, Metabolic Activation: S-9, Method: STANDARD PLATE): inactive; negative | mutagenic call [3]: inactive; negative | mutagenic call (Test System: AMES SALMONELLA TYPHIMURIUM, Strain/Indicator: TA100, Metabolic Activation: S-9, Method: STANDARD PLATE): inactive; negative | mutagenic call (Test System: E. COLI, Strain/Indicator: WP2 (HCR), Metabolic Activation: NONE, Method: STANDARD PLATE): inactive; negative | mutagenic call (Test System: E. COLI, Strain/Indicator: WP2 (HCR), Metabolic Activation: S-9, Method: STANDARD PLATE): inactive; negative

From PubChem BioAssay AID1259407 (Chemical Carcinogenesis Research Information System (CCRIS), 2018)
